The values below come from publication PMC3242765, “Inhibitors of Alphavirus Entry and Replication Identified with a Stable Chikungunya Replicon Cell Line and Virus-Based Assays” (PLoS ONE, 2011).

“Also recorded” adds a separate entry of the source. Read-outs that look alike come from different tables or passages of the source.

Test [1] relates to CHIKV replicon. As to the kind of experiment: microbe, parasite or virus in culture. The test is classed as cell-based, Chikungunya virus (CHIKV). Particulars: for IC50: Chikungunya virus, 48 h.
Test [2] relates to BHK cells. As to the kind of experiment: Cell viability ATP assay, BHK cells. The test is classed as cell-based, hamster. Particulars: Mesocricetus auratus, BHK, 48 h, read-out: Cell viability IC50.
In test [3] the test system is SFV. As to the kind of experiment: CPE reduction assay, SFV (WST-1). The test is classed as cell-based, Semliki Forest virus (SFV). Particulars: Semliki Forest virus, BHK, 22 h, read-out: SFV IC50 (CPE reduction). For orientation: Tetrazolium dyes change colour on reduction, which living cells bring about.
The test system of test [4] is SINV. As to the kind of experiment: CPE reduction assay, SINV (WST-1). The format is cell-based, Sindbis virus (SINV). The conditions noted are these: Sindbis virus, BHK, 24 h, read-out: SINV IC50 (CPE reduction).
Test [5] relates to SFV. Put plainly: Viral yield analysis using a plaque assay. The format is cell-based, Semliki Forest virus (SFV). The conditions noted are these: for SFV yield: BHK cells, MOI 0.01, 50 µM compound, 16 h, untreated control 1.4×10^9 PFU/ml.
In test [6] the test system is SFVts9-Rluc. The test is classed as cell-based, Semliki Forest virus (SFV).
The test system of test [7] is SFV-Rluc.
The test system of test [8] is CHIKV. Particulars: 2006 La Réunion outbreak; cited from earlier work.
Test [9] concerns SFV-Rluc. Put plainly: microbe, parasite or virus in culture. Particulars: Semliki Forest virus, BHK; for IC50: 14 h, read-out: SFV IC50.
The subject of test [10] is BHK-CHIKV-NCT cells. As to the kind of experiment: Cell viability ATP assay, BHK-CHIKV-NCT cells. The format is cell-based, hamster.
The test system of test [11] is CHIKV-Rluc. As to the kind of experiment: microbe, parasite or virus in culture. The format is cell-based, Chikungunya virus (CHIKV). The conditions noted are these: Chikungunya virus, BHK, 16 h, read-out: CHIKV-Rluc IC50.
For test [12], the system named is CHIKV. The conditions noted are these: cited from earlier work.
Where [13] appears, read: Mesocricetus auratus, 48 h, read-out: Cell viability IC50, ATP assay, 48 h exposure of BHK-CHIKV-NCT cells, up to 200 µM.

As for `CCN(CC)CCCC(C)Nc1ccnc2cc(Cl)ccc12` (centres unmarked) [Chloroquine], the “CHIKV replicon % left” value in [1] is given as 104.4%. Also, the “Suppression of CHIKV replicon (in words)” value in test [1] was “no suppression of replicon propagation; also recorded: has no effect on CHIKV replicon”. In addition, the IC50 in test [2] is above 200 µM; in test [3] it was 8.2 µM; in test [4] it was 11.3 µM; in test [9] it was 13.4 µM. Besides, the “Decrease of SFV titer versus untreated control” value in test [5] (50 µM compound, MOI 0.01, 16 h) is “two orders of magnitude”. For the same compound, the SFV yield in [5] was 3.3×10^7 PFU/ml. Also, the “Effect on Rluc signal of SFVts9-Rluc (entry)” value in [6] was “dose-dependent inhibition of Rluc signal”. Besides, the “SFV replication % left (surviving fraction, remaining percentage of SFV replication)” value in test [7] is 12.2%. Moreover, the “SI (selectivity index)” value in [7] was above 14.9. Besides, the “Clinical efficacy in acute CHIKV viremia (duration of viremia, severity and duration of symptoms)” value in test [8] was “failed to show any benefits”.

In the case of `O=c1cc(-c2ccc(O)cc2)oc2cc(O)cc(O)c12` [Apigenin], the “CHIKV replicon % left” value in test [1] stood at 8.7%. The IC50 in test [1] (read-out: EGFP IC50) is 22.5 µM; in test [1] (read-out: Rluc IC50), 28.3 µM; in test [10] (setting [13]) it was above 200 µM; in test [2], above 200 µM; in test [3], 4.4 µM; in [4], 7.2 µM. For the same compound, the results for the IC50 in [11] and in test [9] were 70.8 µM and 20.6 µM, respectively. The SFV yield in test [5] is 6.7×10^7 PFU/ml. In test [6], the “Effect on SFV entry (Rluc activity)” value is “None of the other compounds, including the flavonoids apigenin, chrysin, naringenin and silybin, inhibited SFV entry”. Besides, the “SFV replication % left (surviving fraction, remaining percentage of SFV replication)” value in test [7] turned out to be 18.0%. Also, the “SI (selectivity index)” value in test [7] was above 9.7.

On to `O=C1C[C@@H](c2ccc(O)cc2)Oc2cc(O)cc(O)c21` [Naringenin], for which the “CHIKV replicon % left” value in test [1] amounted to 6.2%. Also, the IC50 in test [1] (read-out: EGFP IC50) was 25.8 µM; in [1] (read-out: Rluc IC50), 30 µM; in test [10] (setting [13]) it was 104 µM; in [10] (read-out: Cell viability IC50, ATP assay, 48 h exposure of BHK-CHIKV-NCT cells, up to 200 µM), 122 µM; in test [2], 94.1 µM; in [3] it was 19.3 µM. The IC50 in [4] was 21.2 µM; in test [11], 118 µM; in test [9], 2.2 µM. In test [5], the SFV yield was 8.2×10^7 PFU/ml. Moreover, in test [6], the “Effect on SFV entry (Rluc activity)” value is “None of the other compounds, including the flavonoids apigenin, chrysin, naringenin and silybin, inhibited SFV entry”. Also, the “SFV replication % left (surviving fraction, remaining percentage of SFV replication)” value in test [7] was -0.0736%. The “SI (selectivity index)” value in test [7] was 42.8.

For the compound `O=c1cc(-c2ccccc2)oc2cc(O)cc(O)c12` [Chrysin], in test [1], the “CHIKV replicon % left” value is 13.8%. For the same compound, the IC50 was 46.8 µM in [1] (read-out: EGFP IC50); 50.2 µM in test [1] (read-out: Rluc IC50); above 200 µM in test [10] (setting [13]); above 200 µM in test [2]; 22.9 µM in test [3]; 43.3 µM in test [4]. Besides, the IC50 was 127 µM in test [11] and 13.7 µM in [9]. In addition, the SFV yield in [5] is listed as 2.9×10^8 PFU/ml. Moreover, the “Effect on SFV entry (Rluc activity)” value in [6] is “None of the other compounds, including the flavonoids apigenin, chrysin, naringenin and silybin, inhibited SFV entry”. In addition, the “SFV replication % left (surviving fraction, remaining percentage of SFV replication)” value in [7] stood at 18.1%. For the same compound, in [7], the “SI (selectivity index)” value is above 14.6.

For the compound `O=c1cnn([C@@H]2O[C@H](CO)[C@@H](O)[C@H]2O)c(=O)[nH]1` [6-Azauridine], the IC50 in [10] (setting [13]) was above 200 µM; in [2] it was above 200 µM; in [3], above 200 µM; in test [4], above 200 µM; in test [11] it was 29.7 µM; in test [12] (approximate conversion of 0.2 µg/ml, read-out: previously reported potency for CHIKV, converted) it was around 800 nM. The IC50 in test [9] is above 200 µM. Also, in [5], the SFV yield was 9.1×10^7 PFU/ml. The “previously reported potency for CHIKV” value in test [12] was 0.2 µg/mL. In [9] (read-out: Inhibition of SFV-Rluc), the inhibition at 200 µM was determined as 40%.

One may read the inhibition as the change of the read-out against control, counted positive when it falls.
